Test results published in patent US9809623B2, “α4β7 peptide monomer and dimer antagonists” (Protagonist Therapeutics, Inc., priority 2014, dated 2017).
pIC50: −log10 of the molar value. Where two headings read alike, the source gives them in different places. Numbered stars: 1 amine (or outer) side, 2 acyl side, 3 side chain; on linkers, the order of the positions; unused ones are H or OH. Bridge positions count the residues as written; N and C are the ends. Square brackets hold non-standard residues; d marks the D form. Peptide text beside a SMILES is read from it. I, II: the chains in the order shown. X2 = O=C(CCOCCOCCOCCOCCOCCOCCOCCOCCOCCOCCOCCOCCOCCOCCOCCOCCOCCOCCOCCOCCOCCOCCOCCOCCOCCC(=O)[*:2])[*:1]; Phe(4-COOH) = N[C@@H](Cc1ccc(C(=O)O)cc1)C(=O)O; Phe(4-tBu) = CC(C)(C)c1ccc(C[C@H](N)C(=O)O)cc1; Bip = N[C@@H](Cc1ccc(-c2ccccc2)cc1)C(=O)O; 1Nal = N[C@@H](Cc1cccc2ccccc12)C(=O)O; 2Nal = N[C@@H](Cc1ccc2ccccc2c1)C(=O)O; Diglycolyl = O=C(COCC(=O)[*:2])[*:1]; NMeR = CN[C@@H](CCCNC(=N)N)C(=O)O; β3hE = N[C@@H](CCC(=O)O)CC(=O)O; NMeK = CN[C@@H](CCCCN)C(=O)O; Pen = CC(C)(S)[C@H](N)C(=O)O; dNMeK = CN[C@H](CCCCN)C(=O)O

Target: T1, α4β1 (Homo sapiens, UniProt P05556+P13612, DEL729-798)
T1 construct: purchased R&D Systems 5668-A4
T1 sequence (P13612 34-977 limits assumed, stated change not applied): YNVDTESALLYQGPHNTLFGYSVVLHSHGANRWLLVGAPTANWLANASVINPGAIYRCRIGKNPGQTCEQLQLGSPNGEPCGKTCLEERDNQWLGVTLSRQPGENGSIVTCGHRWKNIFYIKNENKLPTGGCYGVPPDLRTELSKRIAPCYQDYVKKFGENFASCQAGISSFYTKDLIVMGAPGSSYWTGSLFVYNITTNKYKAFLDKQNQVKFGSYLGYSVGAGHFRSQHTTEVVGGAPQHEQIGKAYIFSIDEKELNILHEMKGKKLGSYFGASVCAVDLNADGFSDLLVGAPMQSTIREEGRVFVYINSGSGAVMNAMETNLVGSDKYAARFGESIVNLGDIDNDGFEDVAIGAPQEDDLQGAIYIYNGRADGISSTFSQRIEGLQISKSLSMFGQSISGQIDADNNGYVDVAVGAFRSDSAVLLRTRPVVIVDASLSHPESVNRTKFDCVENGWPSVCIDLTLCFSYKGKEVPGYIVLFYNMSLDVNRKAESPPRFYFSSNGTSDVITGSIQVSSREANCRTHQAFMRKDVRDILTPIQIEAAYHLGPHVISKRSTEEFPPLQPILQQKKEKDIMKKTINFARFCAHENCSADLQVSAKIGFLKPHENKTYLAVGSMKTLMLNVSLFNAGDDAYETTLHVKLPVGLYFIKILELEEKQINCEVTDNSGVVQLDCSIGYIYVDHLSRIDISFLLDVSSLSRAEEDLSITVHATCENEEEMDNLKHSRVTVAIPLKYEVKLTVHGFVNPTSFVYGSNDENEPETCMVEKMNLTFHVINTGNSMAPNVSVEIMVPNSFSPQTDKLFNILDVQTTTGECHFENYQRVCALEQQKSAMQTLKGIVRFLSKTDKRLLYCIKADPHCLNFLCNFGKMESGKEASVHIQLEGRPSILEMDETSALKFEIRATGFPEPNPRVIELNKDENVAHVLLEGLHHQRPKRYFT
T1 sequence (P05556 21-728 limits assumed, stated change not applied): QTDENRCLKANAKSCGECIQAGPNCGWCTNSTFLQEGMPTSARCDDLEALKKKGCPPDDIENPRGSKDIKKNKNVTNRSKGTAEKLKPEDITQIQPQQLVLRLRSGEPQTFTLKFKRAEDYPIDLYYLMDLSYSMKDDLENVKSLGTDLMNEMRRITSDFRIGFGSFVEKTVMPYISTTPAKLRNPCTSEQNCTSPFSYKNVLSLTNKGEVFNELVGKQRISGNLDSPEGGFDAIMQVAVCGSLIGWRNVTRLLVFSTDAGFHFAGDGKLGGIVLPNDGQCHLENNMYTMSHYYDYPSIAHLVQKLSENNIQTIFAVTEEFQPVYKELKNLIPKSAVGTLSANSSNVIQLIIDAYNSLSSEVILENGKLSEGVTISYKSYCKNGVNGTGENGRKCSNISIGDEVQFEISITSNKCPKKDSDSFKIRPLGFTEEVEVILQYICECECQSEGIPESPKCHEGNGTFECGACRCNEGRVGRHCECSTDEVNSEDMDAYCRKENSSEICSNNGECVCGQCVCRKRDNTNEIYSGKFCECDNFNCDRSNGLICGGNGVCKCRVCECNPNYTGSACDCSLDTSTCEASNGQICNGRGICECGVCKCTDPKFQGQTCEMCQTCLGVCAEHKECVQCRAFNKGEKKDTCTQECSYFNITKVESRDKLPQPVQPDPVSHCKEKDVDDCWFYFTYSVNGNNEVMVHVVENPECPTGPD
Assay: α4β1-VCAM Competition ELISA
Assay type: binding
Procedure, shortened: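 ELISA plates were coated with VCAM-1 Fc at 400 ng/well. Peptide dilutions (highest final 100 μM) and 60 nM α4β1 were incubated 2 h at 37 °C in pH 7.6 Tris buffer containing 1 mM Mn2+ or Mg2+. Integrin retained on the plate was detected by 9F10 antibody, then HRP secondary, with TMB absorbance at 450 nm.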

[1] = Table 3-B, Selectivity (α4β1), range classes, read-out: α4β1 ELISA IC50
[2] = Table 4-B, read-out: ELISA_α4β1 IC50

Structure (SMILES) | pIC50 [1] | pIC50 [2]
CC(=O)N[C@@H]1C(=O)N(C)[C@@H](CCCNC(=N)N)C(=O)N[C@@H](CO)C(=O)N[C@@H](CC(=O)O)C(=O)N[C@@H]([C@@H](C)O)C(=O)N[C@@H](CC(C)C)C(=O)N[C@H](C(=O)N[C@@H](Cc2cccc3ccccc23)C(=O)N[C@@H](CCC(=O)O)C(=O)N(C)[C@H](CCCCNC(=O)COCC(=O)NCCCC[C@H](C(N)=O)N(C)C(=O)[C@H](CCC(=O)O)NC(=O)[C@H](Cc2cccc3ccccc23)NC(=O)[C@H]2NC(=O)[C@H](CC(C)C)NC(=O)[C@H]([C@@H](C)O)NC(=O)[C@H](CC(=O)O)NC(=O)[C@H](CO)NC(=O)[C@H](CCCNC(=N)N)N(C)C(=O)[C@@H](NC(C)=O)C(C)(C)SSC2(C)C)C(N)=O)C(C)(C)SSC1(C)C [compound 44] (I: Ac-[Pen][NMeR]SDTL[Pen][1Nal]E[dNMeK]-NH2 / II: Ac-[Pen][NMeR]SDTL[Pen][1Nal]E[dNMeK]-NH2; disulfide I:1-I:7, II:1-II:7; linker I:10-II:10 via Diglycolyl) | 6.30 to 7.00 | –
CC(=O)N[C@@H]1C(=O)N(C)[C@@H](CCCNC(=N)N)C(=O)N[C@@H](CO)C(=O)N[C@@H](CC(=O)O)C(=O)N[C@@H]([C@@H](C)O)C(=O)N[C@@H](CC(C)C)C(=O)N[C@H](C(=O)N[C@@H](Cc2c[nH]c3ccccc23)C(=O)N[C@@H](CCC(=O)O)C(=O)N[C@H](CCCCNC(=O)COCC(=O)NCCCC[C@@H](NC(=O)[C@H](CCC(=O)O)NC(=O)[C@H](Cc2c[nH]c3ccccc23)NC(=O)[C@H]2NC(=O)[C@H](CC(C)C)NC(=O)[C@H]([C@@H](C)O)NC(=O)[C@H](CC(=O)O)NC(=O)[C@H](CO)NC(=O)[C@H](CCCNC(=N)N)N(C)C(=O)[C@@H](NC(C)=O)C(C)(C)SSC2(C)C)C(N)=O)C(N)=O)C(C)(C)SSC1(C)C [compound 67] (I: Ac-[Pen][NMeR]SDTL[Pen]WE[dK]-NH2 / II: Ac-[Pen][NMeR]SDTL[Pen]WE[dK]-NH2; disulfide I:1-I:7, II:1-II:7; linker I:10-II:10 via Diglycolyl) | 6.30 to 7.00 | –
CC(=O)N[C@@H]1C(=O)N(C)[C@@H](CCCNC(=N)N)C(=O)N[C@@H](CO)C(=O)N[C@@H](CC(=O)O)C(=O)N[C@@H]([C@@H](C)O)C(=O)N[C@@H](CC(C)C)C(=O)N[C@H](C(=O)N[C@@H](Cc2c[nH]c3ccccc23)C(=O)N[C@@H](CCC(=O)O)C(=O)N[C@H](CCCCNC(=O)COCC(=O)NCCCC[C@@H](NC(=O)[C@H](CCC(=O)O)NC(=O)[C@H](Cc2c[nH]c3ccccc23)NC(=O)[C@H]2NC(=O)[C@H](CC(C)C)NC(=O)[C@H]([C@@H](C)O)NC(=O)[C@H](CC(=O)O)NC(=O)[C@H](CO)NC(=O)[C@H](CCCNC(=N)N)N(C)C(=O)[C@@H](NC(C)=O)C(C)(C)SSC2(C)C)C(=O)O)C(=O)O)C(C)(C)SSC1(C)C [compound 78] (I: Ac-[Pen][NMeR]SDTL[Pen]WE[dK]-OH / II: Ac-[Pen][NMeR]SDTL[Pen]WE[dK]-OH; disulfide I:1-I:7, II:1-II:7; linker I:10-II:10 via Diglycolyl) | 6.30 to 7.00 | –
CC(=O)N[C@@H]1C(=O)N(C)[C@@H](CCCNC(=N)N)C(=O)N[C@@H](CO)C(=O)N[C@@H](CC(=O)O)C(=O)N[C@@H]([C@@H](C)O)C(=O)N[C@@H](CC(C)C)C(=O)N[C@H](C(=O)N[C@@H](Cc2ccc(C(=O)O)cc2)C(=O)N[C@@H](CCC(=O)O)CC(=O)N(C)[C@@H](CCCCNC(=O)COCC(=O)NCCCC[C@@H](C(N)=O)N(C)C(=O)C[C@H](CCC(=O)O)NC(=O)[C@H](Cc2ccc(C(=O)O)cc2)NC(=O)[C@H]2NC(=O)[C@H](CC(C)C)NC(=O)[C@H]([C@@H](C)O)NC(=O)[C@H](CC(=O)O)NC(=O)[C@H](CO)NC(=O)[C@H](CCCNC(=N)N)N(C)C(=O)[C@@H](NC(C)=O)C(C)(C)SSC2(C)C)C(N)=O)C(C)(C)SSC1(C)C [compound 148] (I: Ac-[Pen][NMeR]SDTL[Pen][Phe(4-COOH)][β3hE][NMeK]-NH2 / II: Ac-[Pen][NMeR]SDTL[Pen][Phe(4-COOH)][β3hE][NMeK]-NH2; disulfide I:1-I:7, II:1-II:7; linker I:10-II:10 via Diglycolyl) | 6.30 to 7.00 | –
CC(=O)N[C@@H]1C(=O)N(C)[C@@H](CCCNC(=N)N)C(=O)N[C@@H](CO)C(=O)N[C@@H](CC(=O)O)C(=O)N[C@@H]([C@@H](C)O)C(=O)N[C@@H](CC(C)C)C(=O)N[C@H](C(=O)N[C@@H](Cc2ccc(-c3ccccc3)cc2)C(=O)N[C@@H](CCC(=O)O)CC(=O)N(C)[C@@H](CCCCNC(=O)COCC(=O)NCCCC[C@@H](C(N)=O)N(C)C(=O)C[C@H](CCC(=O)O)NC(=O)[C@H](Cc2ccc(-c3ccccc3)cc2)NC(=O)[C@H]2NC(=O)[C@H](CC(C)C)NC(=O)[C@H]([C@@H](C)O)NC(=O)[C@H](CC(=O)O)NC(=O)[C@H](CO)NC(=O)[C@H](CCCNC(=N)N)N(C)C(=O)[C@@H](NC(C)=O)C(C)(C)SSC2(C)C)C(N)=O)C(C)(C)SSC1(C)C [compound 150] (I: Ac-[Pen][NMeR]SDTL[Pen][Bip][β3hE][NMeK]-NH2 / II: Ac-[Pen][NMeR]SDTL[Pen][Bip][β3hE][NMeK]-NH2; disulfide I:1-I:7, II:1-II:7; linker I:10-II:10 via Diglycolyl) | 5.00 to 6.00 | –
CC(=O)N[C@@H]1C(=O)N(C)[C@@H](CCCNC(=N)N)C(=O)N[C@@H](CO)C(=O)N[C@@H](CC(=O)O)C(=O)N[C@@H]([C@@H](C)O)C(=O)N[C@@H](CC(C)C)C(=O)N[C@H](C(=O)N[C@@H](Cc2ccc(C(C)(C)C)cc2)C(=O)N[C@@H](CCC(=O)O)CC(=O)N[C@H](CCCCN)C(N)=O)C(C)(C)SSC1(C)C [compound 153] (Ac-[Pen][NMeR]SDTL[Pen][Phe(4-tBu)][β3hE][dK]-NH2; disulfide 1-7) | 5.00 to 6.00 | –
CC(=O)N[C@H]1CSSC[C@@H](C(=O)NCC(=O)N[C@@H](CCC(=O)O)C(N)=O)NC(=O)[C@H](CC(C)C)NC(=O)[C@H]([C@@H](C)O)NC(=O)[C@H](CC(=O)O)NC(=O)[C@H](CO)NC(=O)[C@H](CCCNC(=N)N)NC1=O [compound 194, Ac-C-R-S-D-T-L-C-G-E-NH2] (Ac-CRSDTLCGE-NH2; disulfide 1-7) | – | 5.69
CC(=O)N[C@H]1CSSC[C@@H](C(N)=O)NC(=O)[C@H](CC(C)C)NC(=O)[C@H]([C@@H](C)O)NC(=O)[C@H](CC(=O)O)NC(=O)[C@H](CO)NC(=O)[C@H](CCCNC(=N)N)NC1=O [compound 195, Ac-C-R-S-D-T-L-C-NH2] (Ac-CRSDTLC-NH2; disulfide 1-7) | – | 5.54
CC(=O)N[C@H]1CSSC[C@@H](C(=O)NCC(=O)N[C@@H](CCC(=O)O)C(=O)N[C@@H](CCCCN)C(N)=O)NC(=O)[C@H](CC(C)C)NC(=O)[C@H]([C@@H](C)O)NC(=O)[C@H](CC(=O)O)NC(=O)[C@H](CO)NC(=O)[C@H](CCCNC(=N)N)NC1=O [compound 196, Ac-C-R-S-D-T-L-C-G-E-K-NH2] (Ac-CRSDTLCGEK-NH2; disulfide 1-7) | – | 5.32
CC(=O)N[C@H]1CSSC[C@@H](C(=O)NCC(=O)N[C@@H](CCC(=O)O)C(=O)N[C@@H](CCCCNC(=O)CCOCCOCCOCCOCCOCCOCCOCCOCCOCCOCCOCCOCCOCCOCCOCCOCCOCCOCCOCCOCCOCCOCCOCCOCCOCCC(=O)NCCCC[C@H](NC(=O)[C@H](CCC(=O)O)NC(=O)CNC(=O)[C@@H]2CSSC[C@H](NC(C)=O)C(=O)N[C@@H](CCCNC(=N)N)C(=O)N[C@@H](CO)C(=O)N[C@@H](CC(=O)O)C(=O)N[C@@H]([C@@H](C)O)C(=O)N[C@@H](CC(C)C)C(=O)N2)C(N)=O)C(N)=O)NC(=O)[C@H](CC(C)C)NC(=O)[C@H]([C@@H](C)O)NC(=O)[C@H](CC(=O)O)NC(=O)[C@H](CO)NC(=O)[C@H](CCCNC(=N)N)NC1=O [compound 197, (Ac-C-R-S-D-T-L-C-G-E-K-NH2)2-PEG25] (I: Ac-CRSDTLCGEK-NH2 / II: Ac-CRSDTLCGEK-NH2; disulfide I:1-I:7, II:1-II:7; linker I:10-II:10 via X2) | – | 6.02
CC(=O)N[C@H]1CSSC[C@@H](C(=O)NCC(=O)N[C@@H](CCC(=O)O)C(N)=O)NC(=O)[C@H](CC(C)C)NC(=O)[C@H]([C@@H](C)O)NC(=O)[C@H](CC(=O)O)NC(=O)[C@H](CO)NC(=O)[C@H](CCCNC(=N)N)N(C)C1=O [compound 198, Ac-C-N-Me-R-S-D-T-L-C-G-E-NH2] (Ac-C[NMeR]SDTLCGE-NH2; disulfide 1-7) | – | 5.89
CC(=O)N[C@H]1CSSC(C)(C)[C@@H](C(=O)N[C@H](CCCCN)C(N)=O)NC(=O)[C@H](CC(C)C)NC(=O)[C@H]([C@@H](C)O)NC(=O)[C@H](CC(=O)O)NC(=O)[C@H](CO)NC(=O)[C@H](CCCNC(=N)N)N(C)C1=O [compound 202, Ac-C-N-Me-R-S-D-T-L-Pen-k-NH2] (Ac-C[NMeR]SDTL[Pen][dK]-NH2; disulfide 1-7) | – | 5.79
CC(=O)N[C@H]1CSSC(C)(C)[C@@H](C(=O)N[C@@H](CCC(=O)O)C(=O)N[C@H](CCCCNC(=O)COCC(=O)NCCCC[C@@H](NC(=O)[C@H](CCC(=O)O)NC(=O)[C@H]2NC(=O)[C@H](CC(C)C)NC(=O)[C@H]([C@@H](C)O)NC(=O)[C@H](CC(=O)O)NC(=O)[C@H](CO)NC(=O)[C@H](CCCNC(=N)N)N(C)C(=O)[C@@H](NC(C)=O)CSSC2(C)C)C(N)=O)C(N)=O)NC(=O)[C@H](CC(C)C)NC(=O)[C@H]([C@@H](C)O)NC(=O)[C@H](CC(=O)O)NC(=O)[C@H](CO)NC(=O)[C@H](CCCNC(=N)N)N(C)C1=O [compound 205, (Ac-C-N-Me-R-S-D-T-L-Pen-E-k-NH2)2-DIG] (I: Ac-C[NMeR]SDTL[Pen]E[dK]-NH2 / II: Ac-C[NMeR]SDTL[Pen]E[dK]-NH2; disulfide I:1-I:7, II:1-II:7 (inferred); linker I:9-II:9 via Diglycolyl (inferred)) | – | 6.35
CC(=O)N[C@@H]1C(=O)N(C)[C@@H](CCCNC(=N)N)C(=O)N[C@@H](CO)C(=O)N[C@@H](CC(=O)O)C(=O)N[C@@H]([C@@H](C)O)C(=O)N[C@@H](CC(C)C)C(=O)N[C@H](C(=O)N[C@@H](Cc2ccc3ccccc3c2)C(=O)N[C@@H](CCC(=O)O)C(=O)N[C@H](CCCCN)C(N)=O)C(C)(C)SSC1(C)C [compound 210, Ac-Pen-N-Me-R-S-D-T-L-Pen-2-Nal-E-k-NH2] (Ac-[Pen][NMeR]SDTL[Pen][2Nal]E[dK]-NH2; disulfide 1-7) | – | 6.70
